Laboratory results taken from ChEMBL document CHEMBL1145759, “Selective phenolic acylation of 10-hydroxycamptothecin using poly (ethylene glycol) carboxylic acid” (Bioorg Med Chem Lett, 2003).

Assays:
[1] = Half life measured in rat plasma; assay type: ADME
[2] = Half life measured in PBS; assay type: ADME
[3] = tested on: P388; test: Inhibitory activity against P388/0 Leukemia cells; assay type: functional, cell-based; conditions: Mus musculus
[4] = tested on: Mus musculus; test: Inhibition of human colon tumor (LS174T) xenograft in nude mice; assay type: functional
[5] = tested on: P388; test: Inhibitory activity against P388 Leukemia cells; assay type: functional, cell-based; conditions: Mus musculus

Row | Compound | half-life [1] | half-life [2] | IC50 [3] | Inhibition [4] | IC50 [5]
1 | CC[C@@]1(O)C(=O)OCc2c1cc1n(c2=O)Cc2cc3cc(OC(=O)COCCO)ccc3nc2-1 | 7.2 min | 5 h | 55 nM | 57.6% | 
2 | CC[C@@]1(O)C(=O)OCc2c1cc1n(c2=O)Cc2cc3ccccc3nc2-1 [CAMPTOTHECIN] |  |  |  | 4.9% | 7 nM
3 | CC[C@@]1(O)C(=O)OCc2c1cc1n(c2=O)Cc2cc3cc(O)ccc3nc2-1 [HYDROXYCAMPTOTHECIN] |  |  |  | 36.5% | 12 nM
